How the values were obtained:
A549 [1] = assay: Cytotoxicity against human A549 cells assessed as cell viability measured by MTT assay; type: functional, cell-based
[2] = biological target: Epidermal growth factor receptor (Homo sapiens, UniProt P00533); assay: Inhibition of EGFR (unknown origin)
A549 [3] = assay: Cell cycle arrest in human A549 cells assessed as accumulation at pre-G1 phase measured after 24 hrs (reference value: 3.83%); type: functional
A549 [4] = assay: Cell cycle arrest in human A549 cells assessed as accumulation at […] phase measured after 24 hrs (reference value: 42.28%); type: functional
[5] = biological target: Platelet-derived growth factor receptor beta (Homo sapiens, UniProt P09619); assay: Inhibition of PDGFRbeta (unknown origin)
[6] = biological target: Vascular endothelial growth factor receptor 2 (Homo sapiens, UniProt P35968); assay: Inhibition of VEGFR2 (unknown origin)
A549 [7] = assay: Cell cycle arrest in human A549 cells assessed as accumulation at G2/M phase measured after 24 hrs (reference value: 28.28%); type: functional
A549 [8] = assay: Induction of apoptosis in human A549 cells assessed as necrotic cells measured after 24 hrs by Annexin-V-FITC/propidium iodide staining based assay (reference value: 1.29%); type: functional
[9] = biological target: Fibroblast growth factor receptor (Homo sapiens, UniProt P22607+P11362+P22455+P21802); assay: Inhibition of FGFR (unknown origin); type: protein assay
A549 [10] = assay: Cell cycle arrest in human A549 cells assessed as accumulation at S phase measured after 24 hrs (reference value: 36.58%); type: functional
WI-38 = assay: Cytotoxicity against human WI-38 cells assessed as cell viability measured by MTT assay; type: ADME, cell-based
A549 [11] = assay: Induction of apoptosis in human A549 cells assessed as late apoptotic cells measured after 24 hrs by Annexin-V-FITC/propidium iodide staining based assay (reference value: 0.15%); type: functional
A549 [12] = assay: Induction of apoptosis in human A549 cells assessed as early apoptotic cells measured after 24 hrs by Annexin-V-FITC/propidium iodide staining based assay (reference value: 0.39%); type: functional

Epidermal growth factor receptor, sequence (P00533 whole entry): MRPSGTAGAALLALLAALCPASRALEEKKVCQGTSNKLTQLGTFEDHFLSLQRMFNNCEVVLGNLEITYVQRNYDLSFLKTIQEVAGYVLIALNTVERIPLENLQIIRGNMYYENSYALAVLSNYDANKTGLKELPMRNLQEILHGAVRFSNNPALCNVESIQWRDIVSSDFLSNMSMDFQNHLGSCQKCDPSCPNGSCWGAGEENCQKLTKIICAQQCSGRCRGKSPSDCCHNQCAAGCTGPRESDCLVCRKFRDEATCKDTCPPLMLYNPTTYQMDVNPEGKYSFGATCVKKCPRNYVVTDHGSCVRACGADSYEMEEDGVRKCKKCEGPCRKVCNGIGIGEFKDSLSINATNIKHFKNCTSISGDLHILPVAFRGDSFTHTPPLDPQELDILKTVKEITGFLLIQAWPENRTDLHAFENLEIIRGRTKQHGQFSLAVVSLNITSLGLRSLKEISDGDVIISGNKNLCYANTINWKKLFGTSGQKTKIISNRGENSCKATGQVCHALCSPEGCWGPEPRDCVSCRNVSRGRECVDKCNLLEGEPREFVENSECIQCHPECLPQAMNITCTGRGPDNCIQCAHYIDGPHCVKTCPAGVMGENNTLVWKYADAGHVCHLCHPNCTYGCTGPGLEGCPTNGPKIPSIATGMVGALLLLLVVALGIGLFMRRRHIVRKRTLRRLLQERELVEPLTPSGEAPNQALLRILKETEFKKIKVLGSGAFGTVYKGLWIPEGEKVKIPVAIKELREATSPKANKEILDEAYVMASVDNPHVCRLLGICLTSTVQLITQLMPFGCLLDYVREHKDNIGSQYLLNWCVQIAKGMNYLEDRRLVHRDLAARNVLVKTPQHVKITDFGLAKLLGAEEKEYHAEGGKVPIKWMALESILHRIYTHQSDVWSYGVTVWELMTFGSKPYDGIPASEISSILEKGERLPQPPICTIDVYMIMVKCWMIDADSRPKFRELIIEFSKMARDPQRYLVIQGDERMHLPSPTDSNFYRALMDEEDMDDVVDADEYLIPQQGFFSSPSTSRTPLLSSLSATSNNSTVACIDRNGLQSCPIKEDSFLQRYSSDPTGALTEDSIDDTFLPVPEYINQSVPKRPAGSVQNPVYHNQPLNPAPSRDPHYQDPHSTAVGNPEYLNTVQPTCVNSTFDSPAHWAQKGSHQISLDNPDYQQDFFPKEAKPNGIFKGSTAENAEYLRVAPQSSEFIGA
Platelet-derived growth factor receptor beta, sequence (P09619 whole entry): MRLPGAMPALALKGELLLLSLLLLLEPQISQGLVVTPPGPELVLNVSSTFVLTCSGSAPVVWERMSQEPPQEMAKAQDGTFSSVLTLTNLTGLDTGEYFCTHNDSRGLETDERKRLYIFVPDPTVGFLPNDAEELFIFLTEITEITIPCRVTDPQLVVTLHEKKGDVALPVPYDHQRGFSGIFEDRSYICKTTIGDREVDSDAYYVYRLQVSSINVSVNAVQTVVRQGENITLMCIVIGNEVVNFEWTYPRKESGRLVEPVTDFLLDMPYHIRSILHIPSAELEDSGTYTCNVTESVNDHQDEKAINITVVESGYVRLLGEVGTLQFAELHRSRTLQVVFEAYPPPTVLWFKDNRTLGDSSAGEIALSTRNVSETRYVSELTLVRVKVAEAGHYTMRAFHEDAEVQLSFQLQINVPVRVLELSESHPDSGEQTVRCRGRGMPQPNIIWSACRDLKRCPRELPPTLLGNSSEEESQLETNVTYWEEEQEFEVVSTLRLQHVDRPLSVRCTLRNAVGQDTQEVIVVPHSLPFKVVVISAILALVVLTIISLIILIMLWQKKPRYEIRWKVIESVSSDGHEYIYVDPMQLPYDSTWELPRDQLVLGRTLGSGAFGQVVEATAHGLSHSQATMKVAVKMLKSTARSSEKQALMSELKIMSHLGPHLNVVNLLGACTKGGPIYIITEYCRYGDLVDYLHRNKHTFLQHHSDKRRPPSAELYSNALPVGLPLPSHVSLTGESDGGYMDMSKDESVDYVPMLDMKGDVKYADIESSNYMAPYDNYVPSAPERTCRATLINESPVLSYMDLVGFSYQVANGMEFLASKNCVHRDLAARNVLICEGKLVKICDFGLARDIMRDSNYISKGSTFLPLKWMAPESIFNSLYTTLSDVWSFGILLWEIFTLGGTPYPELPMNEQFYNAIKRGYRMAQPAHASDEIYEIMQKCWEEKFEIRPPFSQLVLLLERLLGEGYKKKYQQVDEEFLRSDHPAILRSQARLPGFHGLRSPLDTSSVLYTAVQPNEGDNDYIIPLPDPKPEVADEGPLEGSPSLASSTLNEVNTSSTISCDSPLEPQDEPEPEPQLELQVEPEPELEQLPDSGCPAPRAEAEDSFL
Vascular endothelial growth factor receptor 2, sequence (P35968 whole entry): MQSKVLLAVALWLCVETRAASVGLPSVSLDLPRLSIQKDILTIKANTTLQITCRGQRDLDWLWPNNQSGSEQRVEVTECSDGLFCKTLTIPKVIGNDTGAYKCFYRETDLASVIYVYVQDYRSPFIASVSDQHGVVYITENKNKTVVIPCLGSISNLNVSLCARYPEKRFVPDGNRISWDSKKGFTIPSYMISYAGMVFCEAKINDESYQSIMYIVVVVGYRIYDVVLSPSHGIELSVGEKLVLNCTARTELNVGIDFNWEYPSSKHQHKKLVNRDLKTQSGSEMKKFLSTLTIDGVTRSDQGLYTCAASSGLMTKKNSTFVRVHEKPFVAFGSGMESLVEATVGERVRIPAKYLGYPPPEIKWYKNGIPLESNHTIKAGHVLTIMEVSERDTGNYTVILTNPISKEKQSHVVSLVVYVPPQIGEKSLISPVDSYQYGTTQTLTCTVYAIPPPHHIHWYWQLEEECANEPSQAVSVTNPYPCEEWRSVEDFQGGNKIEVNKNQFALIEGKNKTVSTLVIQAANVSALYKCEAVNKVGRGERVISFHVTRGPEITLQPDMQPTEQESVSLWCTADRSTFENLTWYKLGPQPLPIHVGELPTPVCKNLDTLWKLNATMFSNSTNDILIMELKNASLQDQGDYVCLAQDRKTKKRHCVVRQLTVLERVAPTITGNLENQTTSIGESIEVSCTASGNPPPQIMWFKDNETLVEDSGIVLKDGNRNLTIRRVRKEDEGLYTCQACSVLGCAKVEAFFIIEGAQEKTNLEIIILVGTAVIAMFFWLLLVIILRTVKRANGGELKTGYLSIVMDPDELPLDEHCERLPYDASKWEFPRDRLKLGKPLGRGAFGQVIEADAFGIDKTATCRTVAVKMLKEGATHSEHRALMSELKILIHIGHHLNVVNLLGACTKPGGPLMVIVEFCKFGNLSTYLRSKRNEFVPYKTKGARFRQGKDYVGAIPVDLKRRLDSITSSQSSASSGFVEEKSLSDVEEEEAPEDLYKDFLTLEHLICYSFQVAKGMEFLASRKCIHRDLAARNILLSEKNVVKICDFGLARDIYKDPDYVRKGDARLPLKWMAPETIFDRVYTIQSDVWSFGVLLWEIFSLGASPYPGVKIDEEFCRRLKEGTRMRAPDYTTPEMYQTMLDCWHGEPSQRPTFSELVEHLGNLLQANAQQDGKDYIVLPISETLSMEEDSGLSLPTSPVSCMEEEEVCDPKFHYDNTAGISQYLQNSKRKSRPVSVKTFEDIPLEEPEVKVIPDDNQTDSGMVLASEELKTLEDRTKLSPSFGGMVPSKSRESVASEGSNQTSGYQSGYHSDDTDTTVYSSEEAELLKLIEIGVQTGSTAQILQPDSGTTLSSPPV

Row | Compound | IC50 (A549 [1]) [µM] | also measured
1 | COc1cccc(-c2cc(-c3c(O)c4ccccc4oc3=O)nc(O)n2)c1 | 5.55 | –
2 | COc1cccc(-c2cc(-c3c(O)c4ccccc4oc3=O)nc(N)c2C#N)c1 | 2.38 | IC50 [2]: 0.033 µM; Activity (A549 [3]): 42.14%; Activity (A549 [4]): 38.55%; IC50 [5]: 0.02 µM; IC50 [6]: 0.042 µM; Activity (A549 [7]): 11.32%; Activity (A549 [8]): 17.12%; IC50 [9]: 0.021 µM; Activity (A549 [10]): 58.89%; IC50 (WI-38): 53.8 µM; Activity (A549 [11]): 22.37%; Activity (A549 [12]): 4.67%
3 | O=c1oc2ccccc2c(O)c1C1=NNC(c2ccc(F)cc2)C1 (stereo not given) | 1.05 | IC50 (WI-38): 19.9 µM
4 | O=c1oc2ccccc2c(O)c1-c1cc(-c2ccc(F)cc2)nc(O)n1 | 2.39 | IC50 (WI-38): 37.8 µM
5 | COc1ccc(C2CC(c3c(O)c4ccccc4oc3=O)=NN2)cc1OC (stereo not given) | 7.58 | –
6 | COc1ccc(-c2cc(-c3c(O)c4ccccc4oc3=O)nc(N)c2C#N)cc1OC | 7.38 | –
7 | COc1cccc(C2CC(c3c(O)c4ccccc4oc3=O)=NN2)c1 (stereo not given) | 5.91 | –
8 | N#Cc1c(-c2c(F)cccc2Cl)cc(-c2c(O)c3ccccc3oc2=O)nc1N | 46.3 | –
9 | COc1cc(C2CC(c3c(O)c4ccccc4oc3=O)=NN2)ccc1O (stereo not given) | 8.4 | –
10 | O=c1oc2ccccc2c(O)c1C1=NNC(c2c(F)cccc2Cl)C1 (stereo not given) | 23.5 | –
11 | O=c1oc2ccccc2c(O)c1-c1cc(-c2c(F)cccc2Cl)nc(S)n1 | 3.98 | IC50 (WI-38): 30.5 µM
12 | O=c1oc2ccccc2c(O)c1-c1cc(-c2c(F)cccc2Cl)nc(O)n1 | 5.1 | –
13 | COc1ccc(-c2cc(-c3c(O)c4ccccc4oc3=O)nc(O)n2)cc1OC | 21.7 | –
14 | O=c1oc2ccccc2c(O)c1-c1cc(-c2ccc(F)cc2)nc(S)n1 | 21.1 | –
15 | COc1cc(-c2cc(-c3c(O)c4ccccc4oc3=O)nc(S)n2)ccc1O | 36.1 | –
16 | N#Cc1c(-c2ccc(F)cc2)cc(-c2c(O)c3ccccc3oc2=O)nc1N | 22.3 | –
17 | COc1cc(-c2cc(-c3c(O)c4ccccc4oc3=O)nc(O)n2)ccc1O | 138 | –
18 | COc1cc(-c2cc(-c3c(O)c4ccccc4oc3=O)nc(N)c2C#N)ccc1O | 38.5 | –
19 | COc1ccc(-c2cc(-c3c(O)c4ccccc4oc3=O)nc(S)n2)cc1OC | 62.6 | –
20 | COc1cccc(-c2cc(-c3c(O)c4ccccc4oc3=O)nc(S)n2)c1 | 10.2 | –

Source: ChEMBL document CHEMBL4808203, “Angiokinase inhibition of VEGFR-2, PDGFR and FGFR and cell growth inhibition in lung cancer: Design, synthesis, biological evaluation and molecular docking of novel azaheterocyclic coumarin derivatives” (Bioorg Med Chem Lett, 2021)
